Measurements as given in patent US20200246317A1, “METHODS OF TREATING DIABETIC NEUROPATHY WITH A THIAZOLINE ANTI-HYPERALGESIC AGENT” (CERSCI THERAPEUTICS, INC., priority 2019, published 2020).
Structures can show the parent of a compound that is named as a salt.

Key:
[1] = Gravimetric Vapor Sorption (GVS); type: physicochemical
Source text: The sample is hygroscopic.

[2] = tested on: STZ-induced mechanical allodynia; assay: Diabetic neuropathy model of FIG. 10 (STZ, mechanical hypersensitivity); type: in vivo, mice; conditions: STZ on day −7
Experimental: Streptozotocin (STZ) destroys insulin-producing cells and generates a diabetic phenotype in mice. Animals were dosed with STZ on day −7. By day 0, animals are hyperglycemic and hyperalgesic (day 0 BL).

[3] = tested on: methylglyoxal-induced diabetic neuropathy; assay: Rat model of diabetic neuropathy, methylglyoxal-induced; type: in vivo; conditions: methylglyoxal-induced (overview)
uninjured animals = assay: Normal sensation in uninjured animals; type: in vivo; conditions: given to uninjured animals
[4] = tested on: lactoperoxidase oxidation (mediated by peroxide); assay: Lactoperoxidase oxidation (mediated by peroxide); type: biochemical; conditions: physiological conditions (neutral pH)
Pharmacokinetics in dog = type: in vivo
Experimental: Similar conditions were used to validate a bioanalytical method in dog plasma also using 50 μL of plasma. In both assays, a deuterated (Compound 1-d4) internal standard was used.

[5] = Stability in hepatocytes, rat; type: in vitro ADME
Excretion in rats = type: in vivo, rat
P-gp (MDR1/ABCB1) = biological target: T1, P-gp (MDR1/ABCB1) (Homo sapiens, UniProt P08183); assay: Inhibition of transporters, P-gp (Caco-2 cells, digoxin); type: in vitro ADME
T1 construct: Caco-2 cells; endogenous in cells; host or cells: Caco-2 cells

BCRP (ABCG2) = biological target: T2, BCRP (ABCG2) (Homo sapiens, UniProt Q9UNQ0); assay: Inhibition of transporters, BCRP (MDCKII cells, prazosin); type: in vitro ADME
T2 construct: expressed in transfected cells; host or cells: MDCKII-BCRP cells (with MDCKII control cells)
T2 sequence (Q9UNQ0 1-655): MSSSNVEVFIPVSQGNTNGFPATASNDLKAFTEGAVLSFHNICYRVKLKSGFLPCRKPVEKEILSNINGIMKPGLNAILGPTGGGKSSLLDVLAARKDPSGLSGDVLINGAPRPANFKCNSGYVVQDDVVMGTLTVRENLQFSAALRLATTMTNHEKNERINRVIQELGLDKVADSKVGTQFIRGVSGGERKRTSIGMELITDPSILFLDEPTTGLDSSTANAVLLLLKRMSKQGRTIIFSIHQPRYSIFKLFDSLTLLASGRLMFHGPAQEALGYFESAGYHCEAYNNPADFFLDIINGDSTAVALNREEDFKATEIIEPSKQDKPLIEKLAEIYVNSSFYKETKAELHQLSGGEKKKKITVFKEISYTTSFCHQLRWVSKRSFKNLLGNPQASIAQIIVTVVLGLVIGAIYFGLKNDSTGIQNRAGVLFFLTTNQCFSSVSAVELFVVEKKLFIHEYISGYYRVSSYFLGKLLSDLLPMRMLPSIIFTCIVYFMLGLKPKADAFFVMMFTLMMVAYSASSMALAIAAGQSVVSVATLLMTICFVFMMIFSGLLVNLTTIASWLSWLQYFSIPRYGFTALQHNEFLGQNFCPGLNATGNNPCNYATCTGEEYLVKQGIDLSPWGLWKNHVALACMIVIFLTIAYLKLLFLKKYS

OATP1B1 = biological target: T3, OATP1B1 (Homo sapiens, UniProt Q9Y6L6); assay: Inhibition of transporters, OATP1B1 (HEK293 cells); type: in vitro ADME
T3 construct: expressed in transfected cells; host or cells: HEK293 cells
T3 sequence (Q9Y6L6 1-691): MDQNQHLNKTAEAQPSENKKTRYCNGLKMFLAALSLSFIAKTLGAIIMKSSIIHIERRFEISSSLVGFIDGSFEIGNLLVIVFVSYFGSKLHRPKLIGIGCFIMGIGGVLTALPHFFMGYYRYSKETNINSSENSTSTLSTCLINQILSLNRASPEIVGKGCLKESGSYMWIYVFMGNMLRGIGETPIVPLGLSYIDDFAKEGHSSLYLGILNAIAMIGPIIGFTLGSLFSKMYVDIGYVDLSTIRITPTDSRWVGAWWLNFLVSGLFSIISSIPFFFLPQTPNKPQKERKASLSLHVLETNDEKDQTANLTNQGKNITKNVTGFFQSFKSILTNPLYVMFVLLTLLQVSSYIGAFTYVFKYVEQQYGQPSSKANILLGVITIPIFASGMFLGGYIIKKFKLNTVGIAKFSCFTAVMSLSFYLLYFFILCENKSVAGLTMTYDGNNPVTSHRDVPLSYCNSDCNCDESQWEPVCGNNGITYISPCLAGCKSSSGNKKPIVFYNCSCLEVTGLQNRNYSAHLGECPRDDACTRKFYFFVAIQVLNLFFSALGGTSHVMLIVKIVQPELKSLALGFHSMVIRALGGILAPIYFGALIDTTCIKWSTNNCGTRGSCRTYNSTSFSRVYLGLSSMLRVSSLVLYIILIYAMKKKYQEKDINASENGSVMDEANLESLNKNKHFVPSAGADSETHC

OAT1 = biological target: T4, OAT1 (Homo sapiens, UniProt Q4U2R8); assay: Inhibition of transporters, OAT1 (HEK293 cells); type: in vitro ADME
T4 construct: expressed in transfected cells; host or cells: HEK293 cells
T4 sequence (Q4U2R8 1-563): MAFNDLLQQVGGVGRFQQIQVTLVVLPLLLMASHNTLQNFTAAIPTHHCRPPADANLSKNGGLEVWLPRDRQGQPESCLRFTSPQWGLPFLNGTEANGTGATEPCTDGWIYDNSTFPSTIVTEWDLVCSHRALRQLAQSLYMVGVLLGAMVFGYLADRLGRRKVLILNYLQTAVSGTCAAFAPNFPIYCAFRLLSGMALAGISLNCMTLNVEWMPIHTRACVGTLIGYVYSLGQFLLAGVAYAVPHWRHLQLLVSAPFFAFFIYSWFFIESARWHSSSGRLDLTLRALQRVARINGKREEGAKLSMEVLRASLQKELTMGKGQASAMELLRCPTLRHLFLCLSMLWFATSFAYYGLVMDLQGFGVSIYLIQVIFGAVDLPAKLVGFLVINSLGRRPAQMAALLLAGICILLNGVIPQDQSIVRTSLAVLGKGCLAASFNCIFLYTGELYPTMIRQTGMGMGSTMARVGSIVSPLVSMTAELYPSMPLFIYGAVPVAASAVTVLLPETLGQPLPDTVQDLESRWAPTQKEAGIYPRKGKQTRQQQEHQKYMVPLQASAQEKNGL

T1 sequence (P08183 whole entry): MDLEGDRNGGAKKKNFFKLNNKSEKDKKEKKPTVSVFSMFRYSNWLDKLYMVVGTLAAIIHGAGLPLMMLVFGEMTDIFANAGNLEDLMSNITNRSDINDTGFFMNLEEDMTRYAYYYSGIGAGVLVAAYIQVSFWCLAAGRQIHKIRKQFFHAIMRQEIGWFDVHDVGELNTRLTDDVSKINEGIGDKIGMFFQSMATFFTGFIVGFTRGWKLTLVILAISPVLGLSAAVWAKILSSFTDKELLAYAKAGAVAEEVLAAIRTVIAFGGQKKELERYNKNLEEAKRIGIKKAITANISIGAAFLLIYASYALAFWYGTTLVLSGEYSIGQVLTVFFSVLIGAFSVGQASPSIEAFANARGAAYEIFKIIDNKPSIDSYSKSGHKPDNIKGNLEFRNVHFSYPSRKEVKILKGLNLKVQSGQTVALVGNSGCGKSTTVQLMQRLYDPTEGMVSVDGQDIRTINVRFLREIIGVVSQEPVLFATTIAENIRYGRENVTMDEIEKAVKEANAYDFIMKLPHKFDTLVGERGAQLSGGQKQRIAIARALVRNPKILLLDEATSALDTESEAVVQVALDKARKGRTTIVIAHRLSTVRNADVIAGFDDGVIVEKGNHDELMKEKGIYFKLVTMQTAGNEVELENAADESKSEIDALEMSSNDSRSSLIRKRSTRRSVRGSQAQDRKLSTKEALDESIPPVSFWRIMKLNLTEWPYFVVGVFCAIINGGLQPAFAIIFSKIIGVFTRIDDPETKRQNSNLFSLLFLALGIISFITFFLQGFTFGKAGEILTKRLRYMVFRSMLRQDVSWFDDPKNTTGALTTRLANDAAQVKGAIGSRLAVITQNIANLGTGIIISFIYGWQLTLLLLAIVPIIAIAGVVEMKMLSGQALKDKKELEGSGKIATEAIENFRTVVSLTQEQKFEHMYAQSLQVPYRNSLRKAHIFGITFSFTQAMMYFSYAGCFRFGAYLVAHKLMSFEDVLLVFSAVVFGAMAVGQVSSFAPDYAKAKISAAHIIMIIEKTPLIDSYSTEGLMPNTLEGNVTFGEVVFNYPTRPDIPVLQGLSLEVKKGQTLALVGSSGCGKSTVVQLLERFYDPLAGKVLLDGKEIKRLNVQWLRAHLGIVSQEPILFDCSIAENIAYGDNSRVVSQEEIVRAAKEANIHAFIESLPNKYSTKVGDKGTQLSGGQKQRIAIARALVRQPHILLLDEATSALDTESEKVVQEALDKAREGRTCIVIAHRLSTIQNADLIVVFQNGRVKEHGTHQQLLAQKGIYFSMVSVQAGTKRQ

## CC1(C)SC(Nc2ccccc2O)=N[C@@H]1C(=O)O [Compound 1, (R)-2-(2-hydroxyphenylamino)-5,5-dimethyl-4,5-dihydrothiazole-4-carboxylic acid mono-hydrochloride]
[1]
  hygroscopicity: hygroscopic
[2]
  effect on STZ-induced mechanical allodynia: blocks STZ-induced mechanical allodynia
[3]
  effect on allodynia: alleviates allodynia
Uninjured animals
  effect on normal sensation: does not alter normal sensation
[4]
  removal of peroxynitrite: catalytically remove peroxynitrite
Pharmacokinetics in dog
  bioavailability after oral administration: bioavailable
[5]
  stability in hepatocytes: stable
Excretion in rats
  form excreted into urine and feces: primarily as a sulfate conjugate
P-gp (MDR1/ABCB1)
  inhibition of P-gp (in words): does not inhibit
BCRP (ABCG2)
  inhibition of BCRP (in words): modestly inhibits
OATP1B1
  inhibition of OATP1B1 (in words): does not inhibit
OAT1
  inhibition of OAT1 (in words): does not inhibit
